According to US20210323950A1, “HERBICIDALLY ACTIVE BICYCLIC BENZOYLPYRAZOLES” (Bayer Aktiengesellschaft, priority 2018, published 2021):

Experiments:
Type in all cases: in vivo
[1] = tested on: Setaria viridis (SETVI); experiment: Pre-emergence herbicidal action against SETVI; details: 80 g/ha, scored visually after about 3 weeks vs untreated controls
Source text: (§1) SETVI: Setaria viridis 1. Pre-Emergence Herbicidal Action and Crop Plant Compatibility Seeds of monocotyledonous and dicotyledonous weed plants and crop plants are placed in plastic or organic planting pots and covered with soil. The compounds of the invention, formulated in the form of wettable powders (WP) or as emulsion concentrates (EC), are then applied onto the surface of the covering soil as aqueous suspension or emulsion with addition of 0.5% additive at a water application rate of […] (converted). After the treatment, the pots are placed in a greenhouse and kept under good growth conditions for the trial plants. After about 3 weeks, the effect of the preparations is scored visually in comparison with untreated controls as percentages. The tables below show the herbicidal activity of numerous compounds according to the invention against important harmful plants. For example, 100% activity=the plants have died, 0% activity=like control plants.

[2] = tested on: Stellaria media (STEME); experiment: Pre-emergence herbicidal action against STEME; details: 80 g/ha, scored visually after about 3 weeks vs untreated controls
Source text: as §1, with “STEME: Stellaria media” for “SETVI: Setaria viridis”

[3] = tested on: Viola tricolor (VIOTR); experiment: Pre-emergence herbicidal action against VIOTR; details: 80 g/ha, scored visually after about 3 weeks vs untreated controls
Source text: as §1, with “VIOTR: Viola tricolor” for “SETVI: Setaria viridis”

[4] = tested on: Echinochloa crus-galli (ECHCG); experiment: Pre-emergence herbicidal action against ECHCG; details: 80 g/ha, scored visually after about 3 weeks vs untreated controls
Source text: as §1, with “ECHCG: Echinochloa crus-galli” for “SETVI: Setaria viridis”

[5] = tested on: Abutilon theophrasti (ABUTH); experiment: Pre-emergence herbicidal action against ABUTH; details: 80 g/ha, scored visually after about 3 weeks vs untreated controls
Source text: as §1, with “ABUTH: Abutilon theophrasti” for “SETVI: Setaria viridis”

[6] = tested on: Amaranthus retroflexus (AMARE); experiment: Pre-emergence herbicidal action against AMARE; details: 80 g/ha, scored visually after about 3 weeks vs untreated controls
Source text: as §1, with “AMARE: Amaranthus retroflexus” for “SETVI: Setaria viridis”

[7] = tested on: Setaria viridis (SETVI); experiment: Post-emergence herbicidal action against SETVI; details: 20 g/ha, post-emergence at one-leaf stage, rated visually after about 3 weeks vs untreated controls
Method: (§2) SETVI: Setaria viridis 2. Post-Emergence Herbicidal Action and Crop Plant Compatibility Seeds of monocotyledonous and dicotyledonous weeds and crop plants are placed in sandy loam in plastic or organic planting pots, covered with soil and cultivated in a greenhouse under controlled growth conditions. 2 to 3 weeks after sowing, the test plants are treated at the one-leaf stage. The compounds of the invention, formulated in the form of wettable powders (WP) or as emulsion concentrates (EC), are then sprayed onto the green parts of the plants as aqueous suspension or emulsion with addition of 0.5% additive at a water application rate of […] (converted). After the test plants had been kept in the greenhouse under optimum growth conditions for about 3 weeks, the activity of the preparations is rated visually in comparison to untreated controls. The tables below show the herbicidal activity of numerous compounds according to the invention against important harmful plants. For example, 100% activity=the plants have died, 0% activity=like control plants.

[8] = tested on: Echinochloa crus-galli (ECHCG); experiment: Post-emergence herbicidal action against ECHCG; details: 20 g/ha, post-emergence at one-leaf stage, rated visually after about 3 weeks vs untreated controls
Method: as §2, with “ECHCG: Echinochloa crus-galli” for “SETVI: Setaria viridis”

[9] = tested on: Abutilon theophrasti (ABUTH); experiment: Post-emergence herbicidal action against ABUTH; details: 20 g/ha, post-emergence at one-leaf stage, rated visually after about 3 weeks vs untreated controls
Method: as §2, with “ABUTH: Abutilon theophrasti” for “SETVI: Setaria viridis”

[10] = tested on: Stellaria media (STEME); experiment: Post-emergence herbicidal action against STEME; details: 20 g/ha, post-emergence at one-leaf stage, rated visually after about 3 weeks vs untreated controls
Method: as §2, with “STEME: Stellaria media” for “SETVI: Setaria viridis”

[11] = tested on: Veronica persica (VERPE); experiment: Pre-emergence herbicidal action against VERPE; details: 80 g/ha, scored visually after about 3 weeks vs untreated controls
Source text: as §1, with “VERPE: Veronica persica” for “SETVI: Setaria viridis”

[12] = tested on: Amaranthus retroflexus (AMARE); experiment: Post-emergence herbicidal action against AMARE; details: 20 g/ha, post-emergence at one-leaf stage, rated visually after about 3 weeks vs untreated controls
Method: as §2, with “AMARE: Amaranthus retroflexus” for “SETVI: Setaria viridis”

Compound | Pre-emergence action against SETVI [1] [%] | Pre-emergence action against STEME [2] [%] | Pre-emergence action against VIOTR [3] [%] | Pre-emergence action against ECHCG [4] [%] | Pre-emergence action against ABUTH [5] [%] | Pre-emergence action against AMARE [6] [%] | Post-emergence action against SETVI [7] [%] | Post-emergence action against ECHCG [8] [%] | Post-emergence action against ABUTH [9] [%] | Post-emergence action against STEME [10] [%] | Pre-emergence action against VERPE [11] [%] | Post-emergence action against AMARE [12] [%]
CCn1ncc(C(=O)c2ccc(C(F)(F)F)c3c2OCCS3)c1O [Example 1-20] | 100 | 100 | 100 | 100 | 100 | 100 | 80 | 80 | 80 | – | – | –
Cc1nn(C)c(O)c1C(=O)c1ccc(C(F)(F)F)c2c1OCCS2 [Example 1-25] | 100 | 90 | 100 | 90 | 100 | 100 | – | 90 | – | 100 | 80 | –
CCn1ncc(C(=O)c2ccc(C(F)(F)F)c3c2SCS3)c1O [Example 1-63] | – | 90 | 100 | – | – | 100 | – | 80 | 80 | 80 | – | 100
Cn1nc(C2CC2)c(C(=O)c2ccc(C(F)(F)F)c3c2OCCS3(=O)=O)c1O [Example 1-119] | – | 100 | 100 | 80 | 100 | 100 | – | – | 90 | 100 | 90 | 100
